Data from patent US20210007350A1, “USE OF A FUNGICIDAL COMPOSITION AS TREATMENT FOR POWDERY MILDEW” (DESARROLLO AGRICOLA Y MINERO, S.A., priority 2017, published 2021).

Tested on: powdery mildew (Sphaerotheca macularis)
Experiment: Control of powdery mildew in greenhouse strawberry cultivation (field efficacy trial)
Type: in vivo
Settings: Myclobutanil 20 g/l, dose 30 ml/hl
Description: To reflect the efficacy of the invention presented in this description, comparative studies were performed in commercial conditions. Thus, commercial application of the present fungicidal composition is carried out by ground spraying with manual sprayers, motor pumps, or other similar means. The invention is further characterised by a specific use with a product application dose of between 0.05 l/hl and 0.5 l/hl, and preferably between 0.2 l/hl and 0.3 l/hl of the composition described herein.
The conditions of the application solution will be those normally used for the crops described. The following examples show the spraying case.
Example 1: Application of the Fungicidal Composition for the Control of Powdery Mildew (Sphaerotheca macularis) in Strawberries
The aim of the protocol was to evaluate the effect of the fungicidal composition applied in different doses for the control of powdery mildew (Sphaerotheca macularis) in greenhouse strawberry cultivation and compare its efficacy against that of a standard chemical phytosanitary product such as myclobutanil. Location: Almeria (Spain). Variety: Benicia.
Untreated control specimen
Myclobutanil 20 g/l, dose 30 ml/hl
Fungicidal composition, dose 0.2l/hl
Fungicidal composition, dose 0.3l/hl
Number of applications: 4
Use of solution: 1000 l/ha.
Parameters evaluated: Efficacy.
Efficacy data were taken at the following times.
T0: 0, before first application.
T1: 10 days after the first application and just before the second application.
T2: 9 days after the second application and just before the third application.
T3: 9 days after the third application and just before the fourth application
T4: 7 days after the fourth application.

CCCCC(C#N)(Cn1cncn1)c1ccc(Cl)cc1 (centres unmarked) [Myclobutanil, myclobutanil]
efficacy % (T0) (T0: before first application, strawberry var. Benicia, greenhouse): 0% | efficacy % (T1) (T1: 10 days after the first application): 92.4% | efficacy % (T2) (T2: 9 days after the second application): 97.0% | efficacy % (T3) (T3: 9 days after the third application): 95.8% | efficacy % (T4) (T4: 7 days after the fourth application): 98.3%
